Test results published in patent publication US20220401450A1, “PEDIATRIC FORMULATIONS FOR TREATMENT OF CANCER” (CELGENE CORPORATION, priority 2019, published 2022).
Peptide text beside a SMILES is read from it.

Assay: Accelerated stability study of blends: chemical compatibility of sweeteners with Compound 1B (assay potency)
Format: physicochemical
Method: The chemical compatibility between these excipients and Compound 1B was evaluated through an accelerated stability study. The formulation samples were prepared as blends, then stored at 25° C./60% RH and 40° C./75% RH for up to four weeks.
Chemical stability of the blends was evaluated both in the presence and absence of high-intensity sweeteners, and the results are summarized in Table 2.

Structure (SMILES) | Chemical stability (compatibility with Compound 1B)
CC1=CC(=O)[N-]S(=O)(=O)O1.[K+] [Acesulfame-K] | Compatible
COC(=O)[C@H](Cc1ccccc1)NC(=O)[C@@H](N)CC(=O)O [Aspartame] (H-Asp-Phe-OMe) | Compatible
O=C1NS(=O)(=O)c2ccccc21 [Saccharin] | Incompatible
OC[C@H]1O[C@H](O[C@]2(CCl)O[C@H](CCl)[C@@H](O)[C@@H]2O)[C@H](O)[C@@H](O)[C@H]1Cl [Sucralose] | Compatible
